From patent US20230143553A1, “PRECISION DELIVERY OF MULTI-SCALE PAYLOADS TO TISSUE-SPECIFIC TARGETS IN PLANTS” (MASSACHUSETTS INSTITUTE OF TECHNOLOGY, priority 2020, published 2023)

Key:
[1] = test system: xylem; test: Phytoinjector delivery to xylem of tomato, dye transport
Text: Based on these parameters, phytoinjectors were designed with a tip diameter smaller than 35 μm and 10 μm for xylem and phloem, respectively (FIG. 1B, FIG. 13C and FIG. 13D). […] To investigate payload delivery in planta, each payload was loaded to phytoinjectors at the point of material assembly before drying. […] The injected petioles were sliced along the transverse section downstream and upstream at various distances from the injection site to investigate the presence of the delivered dyes. […] In xylem, transport analysis was conducted by tangential sectioning of the stem (FIG. 3E). […] To quantify payloads transport, the fluorescence intensity was integrated (see FIG. 3E). The normalized intensity distribution evolves spatially and temporally (FIG. 3F).

[2] = test system: petiole's xylem; test: Luciferin-luciferase bioluminescent reaction after phytoinjector delivery into petiole xylem; format: in vivo, tomato (Solanum lycopersicum); conditions: luciferin in petiole's xylem; other reagents by foliar infiltration
Text: The phytoinjectors were applied in petiole vasculature near the leaflet to facilitate observation and imaging. At first, luciferin was deployed in the petiole's xylem while the other reagents were delivered by foliar infiltration to the leaf.

Compound	transport distance upstream of injection site [1]	transport distance downstream of injection site ([1]; from root to leaves)	luminescence of leaf tissue after delivery [2]
5(6)-carboxyfluorescein diacetate	1 cm	more than 7 cm	
O=C(O)[C@H]1CSC(c2nc3ccc(O)cc3s2)=N1 [luciferin]			showed luminescence
